Assay results published in patent publication US5872107A, “Treatment of urogenital cancer with boron neutron capture therapy” (Emory University, priority 1997, dated 1999).
“And” between values parts separate entries of the source, which are not always exact repeats. Equal entries are not always repeated.

Columns and labels:
[1] = test system: primary human peripheral blood mononuclear (PBM) cells; assay: Cellular uptake and intracellular phosphorylation, PBM cells; type: cell-based
From the text: Carboranyl-containing nucleosides and oligonucleotides, which are lipophilic and have a high content of boron atoms, are particularly suited for use in BNCT of urogenital tumors. Preferred compounds include 5-carboranyl-2'-deoxyuridine (CDU) and 5-o-carboranyl-1-(2-deoxy-2-fluoro-β-D-arabinofuranosyl)uracil (CFAU). […] The entrapment of this molecule in cells allows for the enhancement of the tumor-to-blood ratio for BNCT. CFAU has increased glycosidic bond stability conferred by the β-fluorine group positioned on the 2'-carbon of the nucleoside.
It has been discovered that boron neutron capture therapy, optionally combined with antisense oligonucleotide therapy, can be used in the treatment of urogenital cancer, and in particular, that of the prostate, bladder, and kidney. Any boron-containing compound that is sufficiently lipophilic to pass through the appropriate urogenital membranes in a quantity high enough to achieve therapy on irradiation with low-energy neutrons can be used. Carboranyl-containing nucleosides and oligonucleotides, which are lipophilic and have a high content of boron atoms, are particularly suited for use in BNCT of urogenital cancer. Preferred compounds include 5-carboranyl-2'-deoxyuridine (CDU) and 5-o-carboranyl-1-(2-deoxy-2-fluoro-β-D-arabinofuranosyl)uracil (CFAU). […]

[2] = Brain uptake of CDU after loading dose and three hour intravenous infusion; type: in vivo, Sprague-Dawley rats
Protocol: Two adult male sprague-dawley rats weighing 305 and 312 g were used to examine the brain uptake of CDU. A loading dose of 5 mg/kg CDU in […] of DMSO was administered intravenously over a one minute period followed by three hour infusion of CDU at the rate of 5 mg/h/kg (50 μl/h) using an infusion […]. At the end of infusion blood samples were collected and rats were sacrificed. The brains were dissected and frozen at -20° C. until analysis.
(§1) Concentrations of CDU in plasma, brain, and urine were determined by HPLC. For the determination of CDU in brain, the brain tissue was homogenized in a 1:2 (g:ml) ratio with isotonic sodium phosphate buffer, pH 7.4. To 200 μl of plasma or brain homogenate in a glass test tube, 50 μl of internal standard (20 μg/ml progesterone) and 5 ml of methylene chloride was added. Tubes were shaken for 15 minutes at low speed on a shaker, centrifuged for 5 minutes at 2000 rpm, and the plasma layer was aspirated off using a vacuum system. The remaining methylene chloride was transferred to a glass culture tube and evaporated to dryness under a stream of nitrogen gas at ambient temperature. The residue was reconstituted with 250 μl of methanol and injected onto HPLC system.

[3] = Pharmacokinetics of CDU in plasma after intravenous administration of 25 mg/kg to rats; type: in vivo, Sprague-Dawley rats
Protocol: 5-Carboranyl-2'-deoxyuridine (CDU) was synthesized by the method of Yamamoto, et al. The chemical purity, confirmed by ^1 H NMR spectral and high-pressure liquid chromatography (HPLC) analysis, was greater than 98%. For intravenous administration, CDU was dissolved in dimethylsulfoxide (DMSO). Internal standard, progesterone, and β-glucuronidase were purchased from Sigma Chemical Company (St. Louis, Mo.). Methanol, HPLC grade, and all other chemicals, analytical grade, were obtained from J. T. Baker (Phillipsburg, N.J.). Partition coefficients were determined one hour after administration.
Five adult male Sprague-Dawley (Harlan Laboratories, Indianapolis, Ind.) rats weighing 303±8 g (mean±SD) were used for the pharmacokinetic study. Rats were housed in a 12 hour light/12 hour dark, constant temperature (22° C.) environment with free access to standard laboratory chow and water. Animals were acclimatized to this environment for one week before the experiment. External jugular vein cannulas were implanted under ketamine:acepromazine:xylazine (50:3.3:3.3 mg/kg) anesthesia the day before the experiment. Rats were fasted overnight, however, water was available ad libitum.
On the morning of the experiment, rats were placed in individual metabolism cages. CDU […]) was administered intravenously in 0.1 ml of DMSO to the rats over a one minute period. Blood samples (0.35 ml) were collected prior to and at […], 2, 3, 4, 5, 6, 7 and 8 hour after CDU administration from the cannula into heparinized polypropylene microcentrifuge tubes. Blood volume was replaced with an equal volume of normal saline. Blood samples were immediately centrifuged at 2000 g for 5 minutes and plasma was separated and frozen at -20° C. until analysis. Urine was collected for 24 hour following CDU administration. Urine volume was measured and samples were frozen at -20° C. until analysis.
as §1
Chromatography was performed on a Hypersil ODC column (5 μm particle size, 4.6×150 mm; Alltech Associates Inc., Deerfield, Ill.) with an online guard column and an isocratic mobile phase of 65% methanol in 10 mM monobasic potassium phosphate, pH 6.3 at a flow rate of 1.5 ml/min. Compounds were detected at a UV wavelength of 274 nm with a detector range setting of 0.005 absorbance units, full scale.
The retention times of CDU and internal standard were 4.7 and 8.6 min, respectively. Sample CDU concentrations were calculated from the slope of calibration plots of the peak area ratio of CDU:internal standard versus standard CDU concentrations. The slopes and intercepts were generated using weighted (1/x^2) least-squares regression analysis. Standard curves were linear in the range of 0.1 μg/ml to 50 μg/ml. The intra- and inter-day relative standard deviations over the range of standard concentrations in all biological media were less than 10%. The extraction recoveries of CDU and progesterone were 99% and 95%, respectively.
Area/moment analysis was used to calculate pharmacokinetic parameters of CDU. […]

[4] = i.v. infusion to steady state, each of two rats, 5 mg/kg, 180 min
[5] = 25 mg/kg i.v., rats, total plasma concentrations, 25 mg/kg
[6] = 25 mg/kg i.v., individual rat, 25 mg/kg
[7] = 25 mg/kg i.v., individual rat, unbound
[8] = 25 mg/kg i.v., mean of five rats
[9] = 25 mg/kg i.v., mean of five rats, unbound

5-carboranyl-2'-deoxyuridine [CDU]
intracellular phosphorylation in PBM cells (in words) [1]: intracellularly phosphorylated
uptake by PBM cells (in words) [1]: taken up
brain:unbound plasma CDU ratio ([2]; i.v. infusion to steady state, each of two rats): 10.26 and 7.87
brain CDU concentration [2, 4]: 2.77 µg/mL and 1.81 µg/mL
brain:total plasma CDU concentration ratio [2, 4]: 0.47 and 0.36
total plasma CDU concentration [2, 4]: 5.92 µg/mL and 5.01 µg/mL
brain concentrations as % of total plasma CDU concentrations ([2]; i.v. infusion to steady state, two rats, 5 mg/kg, 180 min): 36 to 47%
brain:plasma ratio based on unbound vs total plasma concentrations ([2]; unbound compared to total): 20 fold
decline of plasma concentrations (in words) ([3]; 25 mg/kg i.v., rats): declined in a biexponential fashion
volume of distribution based on unbound CDU concentrations ([3]; 25 mg/kg i.v., rats): 15.5 kg⁻¹
clearance based on unbound plasma CDU concentrations (CLf) ([3]; 25 mg/kg i.v., rats, average): 255.5 ± 74 mL/min/kg and 255 mL/min/kg
terminal half-life ([3]; 25 mg/kg i.v., rats, mean±SD): 1.26 ± 0.28 h
steady-state volume of distribution [3, 5]: 0.70 ± 0.23 kg⁻¹ and 0.7 kg⁻¹
total clearance [3, 5]: 11.5 ± 3.3 mL/min/kg and 11.5 mL/min/kg
AUC, individual rats [3, 6]: 32.39 mg h 1^-1 and 25.14 mg h 1^-1 and 44.68 mg h 1^-1 and 42.49 mg h 1^-1 and 47.28 mg h 1^-1
CLT, individual rats [3, 6]: 0.77 1 h^-1 kg^-1 and 0.99 1 h^-1 kg^-1 and 0.56 1 h^-1 kg^-1 and 0.59 1 h^-1 kg^-1 and 0.53 1 h^-1 kg^-1
MRT, individual rats [3, 6]: 1.17 h and 0.51 h and 0.81 h and 1.64 h and 1.24 h
V33 (steady-state volume of distribution), individual rats [3, 6]: 0.90 1 kg^-1 and 0.51 1 kg^-1 and 0.45 1 kg^-1 and 0.97 1 kg^-1 and 0.65 1 kg^-1
t1/2, individual rats [3, 6]: 1.46 h and 1.20 h and 0.81 h and 1.54 h and 1.28 h
CLf, individual rats [3, 7]: 17.15 1 h^-1 kg^-1 and 22.33 1 h^-1 kg^-1 and 12.36 1 h^-1 kg^-1 and 13.07 1 h^-1 kg^-1 and 11.76 1 h^-1 kg^-1
Vss,f, individual rats [3, 7]: 20.02 1 kg^-1 and 11.29 1 kg^-1 and 10.09 1 kg^-1 and 21.56 1 kg^-1 and 14.53 1 kg^-1
AUC, mean [3, 8]: 38.39 mg h 1^-1
MRT, mean [3, 8]: 1.07 h
V33 (steady-state volume of distribution), mean [3, 8]: 0.70 1 kg^-1
t1/2, mean [3, 8]: 1.26 h
CLf, mean [3, 9]: 15.33 1 h^-1 kg^-1
Vss,f, mean [3, 9]: 15.50 1 kg^-1
metabolic intrinsic clearance of free drug ([3]; estimated, unbound drug): 333 mL/min/kg
